PubChem BioAssay (NCI)
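All cell lines were grown in 96-well plates and treated with compound for 48 hours. GI50: concentration for 50% inhibition of growth. At the TGI there is no net growth.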

What was measured:
Assay in all cases: NCI-60 cell line screen, 48 h
SK-OV-3 ovarian = system: SK-OV-3 ovarian
MOLT-4 leukemia = system: MOLT-4 leukemia
HS 578T breast = system: HS 578T breast
EKVX NSCLC = system: EKVX NSCLC
PC-3 prostate = system: PC-3 prostate
IGROV1 ovarian = system: IGROV1 ovarian
SF-295 CNS = system: SF-295 CNS
NCI-H522 lung = system: NCI-H522 lung
NCI-H23 lung = system: NCI-H23 lung
KM12 colon = system: KM12 colon
RXF 393 renal = system: RXF 393 renal
SN12C renal = system: SN12C renal
MCF7 breast = system: MCF7 breast
UACC-257 melanoma = system: UACC-257 melanoma
ACHN renal = system: ACHN renal
BT-549 breast = system: BT-549 breast
CCRF-CEM leukemia = system: CCRF-CEM leukemia
LOX IMVI melanoma = system: LOX IMVI melanoma
MDA-MB-435 = system: MDA-MB-435
MDA-MB-231 breast = system: MDA-MB-231 breast
HCC-2998 colon = system: HCC-2998 colon
UACC-62 melanoma = system: UACC-62 melanoma
K-562 leukemia = system: K-562 leukemia
HL-60(TB) leukemia = system: HL-60(TB) leukemia
NCI/ADR-RES ovarian = system: NCI/ADR-RES ovarian
OVCAR-5 ovarian = system: OVCAR-5 ovarian
M14 melanoma = system: M14 melanoma
786-0 renal = system: 786-0 renal
COLO 205 colon = system: COLO 205 colon
DU-145 prostate = system: DU-145 prostate
SF-539 CNS = system: SF-539 CNS
NCI-H226 lung = system: NCI-H226 lung
SK-MEL-28 melanoma = system: SK-MEL-28 melanoma
SNB-75 CNS = system: SNB-75 CNS
HCT-116 colon = system: HCT-116 colon
HT29 colon = system: HT29 colon
OVCAR-3 ovarian = system: OVCAR-3 ovarian
A549 NSCLC = system: A549 NSCLC
T-47D breast = system: T-47D breast
UO-31 renal = system: UO-31 renal
CAKI-1 renal = system: CAKI-1 renal
SF-268 CNS = system: SF-268 CNS
OVCAR-8 ovarian = system: OVCAR-8 ovarian
A498 renal = system: A498 renal
HOP-92 NSCLC = system: HOP-92 NSCLC
TK-10 renal = system: TK-10 renal
SR leukemia = system: SR leukemia
U251 CNS = system: U251 CNS
HOP-62 NSCLC = system: HOP-62 NSCLC
SK-MEL-5 melanoma = system: SK-MEL-5 melanoma
SK-MEL-2 melanoma = system: SK-MEL-2 melanoma
OVCAR-4 ovarian = system: OVCAR-4 ovarian
MALME-3M melanoma = system: MALME-3M melanoma
SNB-19 CNS = system: SNB-19 CNS
HCT-15 colon = system: HCT-15 colon
NCI-H460 lung = system: NCI-H460 lung
RPMI-8226 leukemia = system: RPMI-8226 leukemia
SW-620 colon = system: SW-620 colon

Oc1ccc(OCCOc2ccc(O)cc2)cc1 was tested, and the GI50 (SK-OV-3 ovarian) was 99.2 µM, the TGI (SK-OV-3 ovarian) was over 100 µM and the GI50 (MOLT-4 leukemia) was 8.82 µM. The TGI (MOLT-4 leukemia) was over 100 µM, the GI50 (HS 578T breast) was over 100 µM and the TGI (HS 578T breast) was over 100 µM. The GI50 (EKVX NSCLC) was 11.2 µM, the TGI (EKVX NSCLC) was over 100 µM and the GI50 (PC-3 prostate) was 2.75 µM. It also gave a TGI (PC-3 prostate) of over 100 µM, a GI50 (IGROV1 ovarian) of 5.94 µM and a TGI (IGROV1 ovarian) of over 100 µM. It also gave a GI50 (SF-295 CNS) of 2.36 µM, a TGI (SF-295 CNS) of 16.6 µM and a GI50 (NCI-H522 lung) of 1.72 µM. The TGI (NCI-H522 lung) was 55.9 µM, the GI50 (NCI-H23 lung) was 4.5 µM and the TGI (NCI-H23 lung) was over 100 µM. For the same compound, the GI50 (KM12 colon) was 2.26 µM, the TGI (KM12 colon) was over 100 µM and the GI50 (RXF 393 renal) was 6.18 µM. For the same compound, the TGI (RXF 393 renal) was over 100 µM, the GI50 (SN12C renal) was 5.72 µM and the TGI (SN12C renal) was over 100 µM. The GI50 (MCF7 breast) was 4.77 µM, the TGI (MCF7 breast) was over 100 µM and the GI50 (UACC-257 melanoma) was 6.08 µM. For the same compound, the TGI (UACC-257 melanoma) was over 100 µM, the GI50 (ACHN renal) was 0.964 µM and the TGI (ACHN renal) was over 100 µM. For the same compound, the GI50 (BT-549 breast) was 8.08 µM, the TGI (BT-549 breast) was over 100 µM and the GI50 (CCRF-CEM leukemia) was 2.27 µM. For the same compound, the TGI (CCRF-CEM leukemia) was over 100 µM, the GI50 (LOX IMVI melanoma) was 1.24 µM and the TGI (LOX IMVI melanoma) was over 100 µM. The GI50 (MDA-MB-435) was 3.22 µM, the TGI (MDA-MB-435) was over 100 µM and the GI50 (MDA-MB-231 breast) was 0.414 µM. The TGI (MDA-MB-231 breast) was over 100 µM, the GI50 (HCC-2998 colon) was 3.36 µM and the TGI (HCC-2998 colon) was 95.9 µM. For the same compound, the GI50 (UACC-62 melanoma) was 2.45 µM, the TGI (UACC-62 melanoma) was 13.8 µM and the GI50 (K-562 leukemia) was 3.08 µM. For the same compound, the TGI (K-562 leukemia) was over 100 µM, the GI50 (HL-60(TB) leukemia) was 5.22 µM and the TGI (HL-60(TB) leukemia) was over 100 µM. It also gave a GI50 (NCI/ADR-RES ovarian) of 3.41 µM, a TGI (NCI/ADR-RES ovarian) of over 100 µM and a GI50 (OVCAR-5 ovarian) of 10.4 µM. For the same compound, the TGI (OVCAR-5 ovarian) was over 100 µM, the GI50 (M14 melanoma) was 3.03 µM and the TGI (M14 melanoma) was 23.5 µM. It also gave a GI50 (786-0 renal) of 3.26 µM, a TGI (786-0 renal) of over 100 µM and a GI50 (COLO 205 colon) of 21.3 µM. The TGI (COLO 205 colon) was 60.6 µM, the GI50 (DU-145 prostate) was 2.8 µM and the TGI (DU-145 prostate) was over 100 µM. It also gave a GI50 (SF-539 CNS) of 2.2 µM, a TGI (SF-539 CNS) of 28.2 µM and a GI50 (NCI-H226 lung) of 4.98 µM. The TGI (NCI-H226 lung) was over 100 µM, the GI50 (SK-MEL-28 melanoma) was 88.9 µM and the TGI (SK-MEL-28 melanoma) was over 100 µM. It also gave a GI50 (SNB-75 CNS) of over 100 µM, a TGI (SNB-75 CNS) of over 100 µM and a GI50 (HCT-116 colon) of 6.24 µM. It also gave a TGI (HCT-116 colon) of over 100 µM, a GI50 (HT29 colon) of 12.7 µM and a TGI (HT29 colon) of over 100 µM. It also gave a GI50 (OVCAR-3 ovarian) of 5.67 µM, a TGI (OVCAR-3 ovarian) of over 100 µM and a GI50 (A549 NSCLC) of 3.5 µM. For the same compound, the TGI (A549 NSCLC) was over 100 µM, the GI50 (T-47D breast) was 4.15 µM and the TGI (T-47D breast) was over 100 µM. For the same compound, the GI50 (UO-31 renal) was 1.47 µM, the TGI (UO-31 renal) was 8.83 µM and the GI50 (CAKI-1 renal) was 0.987 µM. It also gave a TGI (CAKI-1 renal) of 20.6 µM, a GI50 (SF-268 CNS) of 3.94 µM and a TGI (SF-268 CNS) of over 100 µM. The GI50 (OVCAR-8 ovarian) was 3.37 µM, the TGI (OVCAR-8 ovarian) was over 100 µM and the GI50 (A498 renal) was 3.17 µM. The TGI (A498 renal) was over 100 µM, the GI50 (HOP-92 NSCLC) was 3.65 µM and the TGI (HOP-92 NSCLC) was over 100 µM. It also gave a GI50 (TK-10 renal) of 6.65 µM, a TGI (TK-10 renal) of over 100 µM and a GI50 (SR leukemia) of 7.41 µM. For the same compound, the TGI (SR leukemia) was over 100 µM, the GI50 (U251 CNS) was 4.41 µM and the TGI (U251 CNS) was over 100 µM. The GI50 (HOP-62 NSCLC) was 8.97 µM, the TGI (HOP-62 NSCLC) was over 100 µM and the GI50 (SK-MEL-5 melanoma) was 1.5 µM. For the same compound, the TGI (SK-MEL-5 melanoma) was 4.36 µM, the GI50 (SK-MEL-2 melanoma) was 8.26 µM and the TGI (SK-MEL-2 melanoma) was 82.6 µM. For the same compound, the GI50 (OVCAR-4 ovarian) was over 100 µM, the TGI (OVCAR-4 ovarian) was over 100 µM and the GI50 (MALME-3M melanoma) was 3.69 µM. For the same compound, the TGI (MALME-3M melanoma) was over 100 µM, the GI50 (SNB-19 CNS) was 27.8 µM and the TGI (SNB-19 CNS) was over 100 µM. The GI50 (HCT-15 colon) was 8.55 µM, the TGI (HCT-15 colon) was over 100 µM and the GI50 (NCI-H460 lung) was 3.57 µM. It also gave a TGI (NCI-H460 lung) of over 100 µM, a GI50 (RPMI-8226 leukemia) of 9.24 µM and a TGI (RPMI-8226 leukemia) of over 100 µM. It also gave a GI50 (SW-620 colon) of 3.68 µM and a TGI (SW-620 colon) of over 100 µM.
